No end group written: not given here.
Target: HLA-DR DRB1*0901 (DR9) (Homo sapiens, UniProt P01903+P01911, A100R/A103E/D57H/D86V/F55Y/F60I/F76Y/I96F/K127E/L162R/M171V/P40D/Q125H/Q99R/R33Q/R42F/S133A/S66N/T210M/V115G/W38K/Y107V/Y59G/Y89S)
Test: biochemical
Format: binding
Conditions: DRB1 *0901

Sequence	IC50
GSHLVEALYLVTGER	> 63 µM
RMSSLHLKRYYGRIL	15 µM
FVNQHLCGSHLVEAL [FVNQHLCGSHLVEAL]	> 63 µM
QSQKLLWQLNGRLEY	5.92 µM
KLSQELHKLQTYPRT	19.1 µM
HLKRYYGRILHYLKA	2.9 µM
EQTTTSITSLYQLEN	17.4 µM
AVTIYEMLQNIFAIF	4.54 µM
TTVLGKLSQELHKLQ	23.8 µM
TSNLSTTVLGKLSQE	2.47 µM
QCQKLLWQLNGRLEY	4.67 µM
DMDKVETFLRIVQTR	51.5 µM

Target: HLA-DR DRB1*0401 (DR4) (Homo sapiens, UniProt P01903+P01911, A100K/A169T/F76Y/I96L/K127E/L162R/M171V/N62H/P40V/Q125Y/R42H/S133A/S149N/S66Y/V115G/V209L/W38E)
Test: biochemical
Format: binding
Conditions: DRB1 *0401

Sequence	IC50
GSHLVEALYLVTGER	15.8 µM
RMSSLHLKRYYGRIL	0.993 µM
FVNQHLCGSHLVEAL [FVNQHLCGSHLVEAL]	19.2 µM
QSQKLLWQLNGRLEY	0.084 µM
KLSQELHKLQTYPRT	19.7 µM
EQTTTSITSLYQLEN	0.17 µM
TSNLSTTVLGKLSQE	8.02 µM
QCQKLLWQLNGRLEY	0.36 µM
DMDKVETFLRIVQTR	2.03 µM

Target: HLA-DR DRB4*0101 (DR53) (Homo sapiens, UniProt P01903+P13762, G164S)
Test: biochemical
Format: binding
Conditions: DRB4 *0101

Sequence	IC50
GSHLVEALYLVTGER	0.225 µM
RMSSLHLKRYYGRIL	2.26 µM
KLSQELHKLQTYPRT	0.87 µM
HLKRYYGRILHYLKA	0.022 µM
EQTTTSITSLYQLEN	29.6 µM
AVTIYEMLQNIFAIF	1.12 µM
TTVLGKLSQELHKLQ	0.241 µM
QCQKLLWQLNGRLEY	0.209 µM
DMDKVETFLRIVQTR	0.19 µM

Target: HLA-DR DRB1*0405 (DR4) (Homo sapiens, UniProt P01903+P01911, A100R/A169T/D86S/F76Y/I96L/K127E/L162R/M171V/N62H/P40V/Q125Y/R42H/S133A/S149N/S66Y/V115G/V209L/W38E)
Test: biochemical
Format: binding
Conditions: DRB1 *0405

Sequence	IC50
GSHLVEALYLVTGER	14.4 µM
RMSSLHLKRYYGRIL	0.034 µM
FVNQHLCGSHLVEAL [FVNQHLCGSHLVEAL]	> 20.7 µM
QSQKLLWQLNGRLEY	0.055 µM
KLSQELHKLQTYPRT	12.2 µM
HLKRYYGRILHYLKA	0.086 µM
EQTTTSITSLYQLEN	0.272 µM
AVTIYEMLQNIFAIF	0.163 µM
TTVLGKLSQELHKLQ	> 9.81 µM
TSNLSTTVLGKLSQE	9.28 µM
QCQKLLWQLNGRLEY	1 µM
DMDKVETFLRIVQTR	0.454 µM

Target: HLA-DR DRB3*0101 (DR52) (Homo sapiens, UniProt P01903+P79483)
Test: biochemical
Format: binding
Conditions: not given

Sequence	IC50
GSHLVEALYLVTGER	18.2 µM
RMSSLHLKRYYGRIL	> 26.2 µM
FVNQHLCGSHLVEAL [FVNQHLCGSHLVEAL]	> 95.2 µM
QSQKLLWQLNGRLEY	5.61 µM
KLSQELHKLQTYPRT	> 263 µM
HLKRYYGRILHYLKA	6.61 µM
EQTTTSITSLYQLEN	> 18.7 µM
AVTIYEMLQNIFAIF	2.83 µM
TTVLGKLSQELHKLQ	> 263 µM
TSNLSTTVLGKLSQE	> 263 µM
QCQKLLWQLNGRLEY	8.71 µM
DMDKVETFLRIVQTR	13.7 µM

Target: HLA-DR DRB1*1302 (DR13) (Homo sapiens, UniProt P01903+P01911, A100E/A169T/K41T/L162R/M171V/P40S/Q125H/Q178H/Q39Y/Q99D/R42S/S66N/T262R/V115G/W38E/Y61H)
Sequence (P01903 26-254 limits assumed, other chains not shown): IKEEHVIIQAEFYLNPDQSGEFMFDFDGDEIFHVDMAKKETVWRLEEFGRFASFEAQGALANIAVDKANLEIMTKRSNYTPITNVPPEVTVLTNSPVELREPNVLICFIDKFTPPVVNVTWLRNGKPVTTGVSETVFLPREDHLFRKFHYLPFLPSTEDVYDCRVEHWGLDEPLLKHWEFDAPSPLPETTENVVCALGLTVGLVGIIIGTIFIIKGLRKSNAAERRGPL
Test: biochemical
Format: binding
Conditions: DRBI *1302

Sequence	IC50
GSHLVEALYLVTGER	12.2 µM
RMSSLHLKRYYGRIL	2.53 µM
FVNQHLCGSHLVEAL [FVNQHLCGSHLVEAL]	10.6 µM
QSQKLLWQLNGRLEY	0.155 µM
KLSQELHKLQTYPRT	> 12.6 µM
HLKRYYGRILHYLKA	0.868 µM
AVTIYEMLQNIFAIF	0.109 µM
TTVLGKLSQELHKLQ	12.7 µM
TSNLSTTVLGKLSQE	9.33 µM
DMDKVETFLRIVQTR	3.38 µM

Target: HLA-DR DRB1*0301 (DR3) (Homo sapiens, UniProt P01903+P01911, A100K/A102G/A103R/A169T/F55Y/I96L/K41T/L162R/M171V/P40S/Q125H/Q178H/Q39Y/R42S/S66N/T106N/T262R/W38E/Y61H)
Sequence (P01903 26-254 limits assumed, other chains not shown): as above
Test: biochemical
Format: binding
Conditions: not given

Sequence	IC50
GSHLVEALYLVTGER	> 176 µM
FVNQHLCGSHLVEAL [FVNQHLCGSHLVEAL]	> 187 µM
QSQKLLWQLNGRLEY	33.4 µM
KLSQELHKLQTYPRT	197 µM
HLKRYYGRILHYLKA	3.71 µM
EQTTTSITSLYQLEN	> 144 µM
AVTIYEMLQNIFAIF	23.7 µM
TTVLGKLSQELHKLQ	92.8 µM
TSNLSTTVLGKLSQE	86.8 µM
QCQKLLWQLNGRLEY	133 µM
DMDKVETFLRIVQTR	11.2 µM

Target: HLA-DR DRB1*1501 (DR15) (Homo sapiens, UniProt P01903+P01911)
Test: biochemical
Format: binding
Conditions: DRBI *1501

Sequence	IC50
RMSSLHLKRYYGRIL	0.0013 µM
FVNQHLCGSHLVEAL [FVNQHLCGSHLVEAL]	1.2 µM
QSQKLLWQLNGRLEY	0.108 µM
HLKRYYGRILHYLKA	0.00069 µM
TTVLGKLSQELHKLQ	0.525 µM
TSNLSTTVLGKLSQE	7.7 µM
DMDKVETFLRIVQTR	> 86.7 µM

Target: HLA-DR DRB1*0701 (DR7) (Homo sapiens, UniProt P01903+P01911, A100R/A102G/A103Q/D57E/D86V/E43K/F76Y/K127E/L162R/M171V/P40G/Q125H/Q99D/R33Q/R42Y/R54Q/S133A/S66F/T210M/V115G/Y107V/Y59L/Y89S)
Test: biochemical
Format: binding
Conditions: DRB1 *0701

Sequence	IC50
GSHLVEALYLVTGER	0.553 µM
RMSSLHLKRYYGRIL	0.283 µM
FVNQHLCGSHLVEAL [FVNQHLCGSHLVEAL]	0.679 µM
KLSQELHKLQTYPRT	85.5 µM
HLKRYYGRILHYLKA	0.214 µM
EQTTTSITSLYQLEN	2.23 µM
TSNLSTTVLGKLSQE	31.3 µM
QCQKLLWQLNGRLEY	3.7 µM
DMDKVETFLRIVQTR	0.436 µM

Target: HLA-DR DRB1*0802 (DR8) (Homo sapiens, UniProt P01903+P01911, A100R/A103L/A169T/F76Y/H45Y/I96F/K41T/L162R/M171V/P40S/Q125H/Q178H/Q39Y/Q99D/R218S/R42G/S66Y/V115G/W38E)
Test: biochemical
Format: binding
Conditions: not given

Sequence	IC50
GSHLVEALYLVTGER	> 54.4 µM
RMSSLHLKRYYGRIL	0.277 µM
FVNQHLCGSHLVEAL [FVNQHLCGSHLVEAL]	> 54.4 µM
QSQKLLWQLNGRLEY	0.991 µM
KLSQELHKLQTYPRT	28.7 µM
HLKRYYGRILHYLKA	0.237 µM
EQTTTSITSLYQLEN	> 54.4 µM
AVTIYEMLQNIFAIF	6.87 µM
TTVLGKLSQELHKLQ	16.2 µM
TSNLSTTVLGKLSQE	2.06 µM
QCQKLLWQLNGRLEY	2.52 µM
DMDKVETFLRIVQTR	0.183 µM

Target: HLA-DR DRB1*0101 (DR1) (Homo sapiens, UniProt P01903+P01911, A100R/D57E/F55L/F60I/F76Y/I96L/L162R/M171V/P40L/Q125E/R42F/V115G/Y59C)
Test: biochemical
Format: binding
Conditions: DRB1 *0101

Sequence	IC50
GSHLVEALYLVTGER	0.645 µM
RMSSLHLKRYYGRIL	0.275 µM
FVNQHLCGSHLVEAL [FVNQHLCGSHLVEAL]	0.583 µM
QSQKLLWQLNGRLEY	0.127 µM
KLSQELHKLQTYPRT	0.019 µM
HLKRYYGRILHYLKA	0.026 µM
EQTTTSITSLYQLEN	19 µM
AVTIYEMLQNIFAIF	0.017 µM
DMDKVETFLRIVQTR	1.11 µM

Target: HLA-DR DRB1*1101 (DR11) (Homo sapiens, UniProt P01903+P01911, A100R/A169T/A87E/I96F/K41T/L162R/M171V/P40S/Q125H/Q178H/Q39Y/Q99D/R42S/S66Y/T262R/V115G/W38E)
Sequence (P01903 26-254 limits assumed, other chains not shown): as above
Test: biochemical
Format: binding
Conditions: DRB1 *1101

Sequence	IC50
GSHLVEALYLVTGER	> 10.5 µM
RMSSLHLKRYYGRIL	1.03 µM
FVNQHLCGSHLVEAL [FVNQHLCGSHLVEAL]	> 1110 µM
QSQKLLWQLNGRLEY	> 60.6 µM
KLSQELHKLQTYPRT	2.38 µM
EQTTTSITSLYQLEN	> 10.5 µM
AVTIYEMLQNIFAIF	29.7 µM
TTVLGKLSQELHKLQ	3.52 µM
TSNLSTTVLGKLSQE	0.534 µM
QCQKLLWQLNGRLEY	1.64 µM
DMDKVETFLRIVQTR	0.206 µM

Target: HLA-DR DRB5*0101 (DR51) (Homo sapiens, UniProt P01903+Q30154)
Test: biochemical
Format: binding
Conditions: DRB5 *0101

Sequence	IC50
GSHLVEALYLVTGER	11.4 µM
RMSSLHLKRYYGRIL	0.491 µM
FVNQHLCGSHLVEAL [FVNQHLCGSHLVEAL]	47.2 µM
QSQKLLWQLNGRLEY	0.402 µM
KLSQELHKLQTYPRT	0.037 µM
HLKRYYGRILHYLKA	0.0023 µM
EQTTTSITSLYQLEN	48.5 µM
AVTIYEMLQNIFAIF	14 µM
TTVLGKLSQELHKLQ	10.6 µM
TSNLSTTVLGKLSQE	2.53 µM
QCQKLLWQLNGRLEY	0.924 µM

Reference: patent US20060079453A1, “Hla binding peptides and their uses” (priority 2002, published 2006)
